Measured values reported in US20210114975A1, “THERAPEUTIC COMPOUND AND METHODS” (Regents of the University of Minnesota, priority 2019, published 2021).

Key:
Format in all cases: cell-based
[1] = tested on: MCT1 expressing WiDr cell line; assay: Mitochondrial stress test (Seahorse XFe96); settings: vs DMSO control
Procedure: (§1) The metabolic profile of compound 1 was evaluated via mitochondrial stress test (MST) and glycolytic stress test (GST) on MCT4 expressing MDA-MB-231 and MCT1 expressing WiDr cell lines using Seahorse XFe96® analyzer (FIGS. 1A and 1B). 20,000 cells/well were seeded in 96-well microplates. MST was performed according to the manufacturer's protocol. The mitochondrial parameters: maximal respiration, ATP production, proton leak and spare respiratory capacity were calculated using wave software. DMSO was used as the negative control. A concentration study was performed in MDA-MB-231 cell line using compound 1 at 100, 50 and 30 μM concentrations. […] GST was also performed according to the manufacturer's protocol. The glycolytic parameters: glycolysis, glycolytic capacity, and glycolytic reserve were calculated using wave software, with DMSO as a negative control. In this case also, a concentration study was carried out at 100, 50 and 30 μM in MDA-MB-231 cell line.

[2] = tested on: MCT4 expressing MDA-MB-231 cell line; assay: Mitochondrial stress test (Seahorse XFe96); settings: 100, 50 and 30 μM, vs DMSO control
Procedure: as §1

[3] = tested on: MCT4 expressing MDA-MB-231 cell line; assay: Glycolysis stress test (Seahorse XFe96); settings: 100, 50 and 30 μM, vs DMSO control
Procedure: as §1

[4] = tested on: 4T1 breast cancer cell line; assay: Inhibition of pyruvate-driven respiration in permeabilized cells (Seahorse XFe96); settings: varying concentrations

SMILES	ATP production [1]	maximal respiration [1]	spare respiratory capacity [1]	ATP production [2]	maximal respiration [2]	spare respiratory capacity [2]	glycolytic capacity [3]	glycolytic reserve [3]	oxygen consumption rate (OCR) after compound injection ([4]; intact 4T1 cells, before rPFO)	inhibition of pyruvate-driven respiration ([4]; rPFO-permeabilized 4T1 cells, FCCP-stimulated pyruvate/malate/DCA)
N#C/C(=C\c1ccc(N(c2ccc(F)cc2)c2ccc(F)cc2)cc1)C(=O)O [Compound 1, (E)-3-(4-(bis(4-fluorophenyl)amino)phenyl)-2-cyanoacrylic Acid]	significantly decreased	significantly decreased	significantly decreased	significantly decreased	significantly decreased	significantly decreased	significantly decreased	significantly decreased	–	–
COc1cc(N(c2ccc(F)cc2)c2ccc(F)cc2)ccc1/C=C(\C#N)C(=O)O [Compound 2, (E)-3-(4-(bis(4-fluorophenyl)amino)-2-methoxyphenyl)-2-cyanoacrylic Acid]	–	–	–	–	–	–	–	–	Acute decreases in OCR were observed	inhibited pyruvate-driven respiration in permeabilized cells in a dose dependent fashion
